In assay [1] the test system is SW1353 cells. Briefly: Proliferation of SW1353 cells (MTT staining, OD570 converted to cell number). The note with it: 24 hours. Type of assay: cell-based, Human. How it is done: (§1) • 2. Human primary central chondrosarcoma cell line SW1353 was purchased from the Bioresource Collection and Research Center of the Food Industry Research and Development Institute (BCRC of FIRDI, Taiwan). SW1353 cells were grown in a 10-cm Petri dish containing Dulbecco's Modified Eagle's Medium (DMEM) (Thermo Fisher Scientific) supplemented with 10% fetal bovine serum (FBS). The SW1353 cells were cultivated in an incubator with culture conditions set at 37° C. and 5% CO2. Medium change was performed every two to three days. Cell passage was performed when the cultured cells reached 80-90% of confluence. • 3.
SW1353 cells were divided into 3 groups, including one control group and two experimental groups (i.e., experimental groups L and B). Each group of the SW1353 cells was incubated in a respective well of a 96-well culture plate containing 200 μL of DMEM at 1×10^4 cells/well, followed by cultivation in an incubator (37° C., 5% CO2) for 24 hours. […] The cell culture of the control group received no treatment.
After cultivation in an incubator (37° C., 5% CO2) for 24 hours, the respective resultant cell culture was stained with 3-(4,5-Dimethylthiazol-2-yl)-2,5-diphenyltetrazolium bromide (MTT), followed by subjecting the stained cells to determination of absorbance at a wavelength of 570 nm by a spectrophotometer. The OD570 values obtained were subsequently converted to cell numbers based on a correlation curve previously prepared by plotting different known cell numbers of the SW1353 cells versus their OD570 values.
(§2) SW1353 cells were divided into 28 groups, including fourteen comparative groups (i.e., comparative groups 1L to 7L and […]) and fourteen experimental groups (i.e., experimental groups 1L to 7L and 1B to 7B). Each group of the SW1353 cells was incubated in a respective well of a 96-well culture plate containing 200 μL of DMEM at 1×10^4 cells/well, followed by cultivation in an incubator (37° C., 5% CO2) for 24 hours.
After cultivation in an incubator (37° C., 5% CO2) for 24 hours, the cell number of each group was determined according to the method described in section C of this example. The fold increase of viable cells was calculated using the following Equation (II): C=D/E (II) where C=fold increase of viable cells • D=cell number of respective experimental group or comparative group • E=cell number of corresponding comparative group 1L, 2L, 3L, 4L, 5L, 6L, or 7L

In assay [2] the test system is SW1353 cells. Briefly: Determination of TGF-β content (ELISA) of SW1353 cell cultures treated with postbiotic extract and/or nutritional component. The format is cell-based, Human. The note with it: 24 hours. The method, then: as §1
The TGF-β content was determined using an enzyme-linked immunosorbent assay (ELISA) kit (Cat. No. 559119, BD Biosciences) in accordance with the manufacturer's instructions.
SW1353 cells were divided into 25 groups, including one control group, twelve comparative groups (i.e., comparative groups L-1 to L-6 and B-1 to B-6), and twelve experimental groups (i.e., experimental groups L-1 to L-6 and B-1 to B-6). Each group of the SW1353 cells was incubated in a respective well of a 96-well culture plate containing 200 μL of DMEM at 1×10^4 cells/well, followed by cultivation in an incubator (37° C., 5% CO2) for 24 hours. […] The cell culture of the control group received no treatment.
After cultivation in an incubator (37° C., 5% CO2) for 24 hours, the respective resultant cell culture was subjected to the determination of TGF-β content according to the method described in section 1 of “General Procedures”.
as §2

[3] abbreviates: nutritional component only 50 mg/L, this group is the reference of the ratio.
Where [4] appears, read: nutritional component only 100 mg/L, relative to the same component at 50 mg/L.
The mark [5] stands for this setting: nutritional component only 50 mg/L.
Where [6] appears, read: nutritional component only 100 mg/L.

This is an account of results in patent publication US11517596B2, “Method for alleviating arthritis with postbiotic extract” (CHAMBIO CO., LTD., priority 2020, dated 2022).

On to `N[C@H]1C(O)O[C@H](CO)[C@@H](O)[C@@H]1O` (stereo partly shown) [Glucosamine], for which the “Fold increase of viable cells” value is 1.0 in assay [1] (setting [3]) and 1.1 in assay [1] (setting [4]). The TGF-β content in assay [2] (setting [5]) stood at 17.1 pg/mL; in assay [2] (setting [6]), 20.8 pg/mL.
In the same order, the values of `O=C1O[C@H]([C@@H](O)CO)C(O)=C1O` [Vitamin C] are 1.0, 1.0, 18.2 pg/mL and 21.1 pg/mL.
With Chondroitin, the entries for the “Fold increase of viable cells” value in assay [1] (setting [3]) and in assay [1] (setting [4]) were 1.0 and 1.1, respectively. Moreover, the TGF-β content in assay [2] (setting [5]) is recorded as 38.3 pg/mL; in assay [2] (setting [6]) it was 44.2 pg/mL.
In the same order, the values of Sodium hyaluronate are 1.0, 1.1, 97.3 pg/mL and 102.2 pg/mL.
